Each structure is given as a SMILES string.

The text below walks through data of patent US8575158B2, “1-phenyl-substituted heterocyclyl derivatives and their use as prostaglandin D2 receptor modulators” (Actelion Pharmaceuticals Ltd., priority 2010, dated 2013).

The experiment addresses T1, hCRTH2 receptor (Homo sapiens, UniProt Q9Y5Y4).
T1 construct: expressed in transfected cells; host or cells: HEK293
T1 sequence (Q9Y5Y4 1-395): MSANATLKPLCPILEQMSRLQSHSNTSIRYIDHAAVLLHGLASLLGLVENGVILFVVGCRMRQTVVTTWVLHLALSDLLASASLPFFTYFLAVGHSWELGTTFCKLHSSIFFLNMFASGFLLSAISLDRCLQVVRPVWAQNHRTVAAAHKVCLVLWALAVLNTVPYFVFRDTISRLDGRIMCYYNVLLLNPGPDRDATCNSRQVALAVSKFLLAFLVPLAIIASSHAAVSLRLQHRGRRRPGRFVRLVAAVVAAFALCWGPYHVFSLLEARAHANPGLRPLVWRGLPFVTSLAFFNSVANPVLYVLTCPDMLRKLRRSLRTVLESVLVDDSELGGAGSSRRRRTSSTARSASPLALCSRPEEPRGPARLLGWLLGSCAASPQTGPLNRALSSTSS
Nature of the experiment: Radioligand displacement assay (3H-PGD2) on hCRTH2 receptor membranes. It is filed as binding. The conditions noted are these: antagonistic activity; 3H-PGD2 displacement on HEK293-hCRTH2 membrane fragments. The method, then:
First, recombinant HEK293-hCRTH2 cells were detached from culture plates into 5 ml buffer A/plate (Buffer A: 5 mM Tris, 1 mM MgCl2-6H2O pH=7.4) using a rubber policeman. Cells were then transferred into centrifugation tubes and centrifuged for 5 min at 400 g. The cell pellet was resuspended in the same buffer and tubes were frozen at −80° C. Cells were thawed and membrane fragments were generated by homogenization using a polytron homogenizer (30 seconds). The membrane fragments were then centrifuged at 3000 g for 20 minutes and resuspended in buffer C (Buffer C: 75 mM Tris, 25 mM MgCl2, 250 mM Saccharose pH 7.4). Aliquots of membrane fragments were stored at −20° C.
Binding assay was performed in a final assay volume of 250 μl. First, 25 μl of test compound, previously diluted in Binding-Buffer (Binding-Buffer: 50 mM Tris-Base, 100 mM NaCl, 1 mM EDTA, 0.1% BSA (protease free), 0.01% NaN3, 10 mM MnCl2, pH 7.0) was placed into each well. After addition of 75 μl Binding-Buffer, 50 μl of the radioligand ^3H-PGD2 (at 2.5 nM (220.000 dpm/well) from ANAWA ART0662) was added to each well. Binding assay was started by addition of 100 μl CRTH2 membrane fragments, reaching a final concentration of 20 μg/well. For non-specific binding, PGD2 was added to the reaction mixture to […] final concentration.
This assay mix was incubated for 90 minutes at room temperature and then filtered through a GF/C filter 96-well plate which was pre-soaked for 3 hours in 0.5% polyethyleneimine (PEI). The filter-wells were washed three times with ice cold Binding-Buffer. Then, 40 μl of Microscint-40 (Packard) was added to each well and the retained radioactivity quantified in a Topcount (Packard).
In the case of `COc1ccc2c(c1)C(c1cc(F)ccc1OCC(=O)O)N(C(=O)OCc1ccccc1)CC2` (racemic) [Example 37, (±)-1-(2-Carboxymethoxy-5-fluoro-phenyl)-7-methoxy-3,4-dihydro-1H-isoquinoline-2-carboxylic acid benzyl ester], the IC50 worked out at 19.9 nM.
The result for `O=C(O)COc1ccc(F)cc1C1c2cccc(Cl)c2CCN1C(=O)OCc1ccccc1` (racemic) [Example 38, (±)-1-(2-Carboxymethoxy-5-fluoro-phenyl)-5-chloro-3,4-dihydro-1H-isoquinoline-2-carboxylic acid benzyl ester] reads 20.8 nM; that for `Cc1cccc2c1CCN(C(=O)OCc1ccccc1)C2c1cc(F)ccc1OCC(=O)O` (racemic) [Example 39, (±)-1-(2-Carboxymethoxy-5-fluoro-phenyl)-5-methyl-3,4-dihydro-1H-isoquinoline-2-carboxylic acid benzyl ester], 22.2 nM; that for `O=C(O)COc1ccc(F)cc1C1c2ccc(F)c(Br)c2CCN1C(=O)OCc1ccccc1` (racemic) [Example 40, (±)-5-Bromo-1-(2-carboxymethoxy-5-fluoro-phenyl)-6-fluoro-3,4-dihydro-1H-isoquinoline-2-carboxylic acid benzyl ester], 23 nM.
In the case of `O=C(O)COc1ccc(F)cc1C1c2cc(F)ccc2CCN1C(=O)OCc1ccccc1` (racemic) [Example 41, (±)-1-(2-Carboxymethoxy-5-fluoro-phenyl)-7-fluoro-3,4-dihydro-1H-isoquinoline-2-carboxylic acid benzyl ester], the IC50 came to 24.8 nM.
Regarding `O=C(O)COc1ccc(F)cc1C1c2cc(F)cc(F)c2CCN1C(=O)OCc1ccccc1` (racemic) [Example 42, (±)-1-(2-Carboxymethoxy-5-fluoro-phenyl)-5,7-difluoro-3,4-dihydro-1H-isoquinoline-2-carboxylic acid benzyl ester], the IC50 was 6.84 nM.
Turning to `O=C(O)COc1ccc(Cl)cc1C1c2cc(F)cc(F)c2CCN1C(=O)OCc1ccccc1` (racemic) [Example 43, (±)-1-(2-Carboxymethoxy-5-chloro-phenyl)-5,7-difluoro-3,4-dihydro-1H-isoquinoline-2-carboxylic acid benzyl ester], the IC50 worked out at 4.94 nM.
`N#Cc1ccc(OCC(=O)O)c(C2c3cc(F)cc(F)c3CCN2C(=O)OCc2ccccc2)c1` (racemic) [Example 44, (±)-1-(2-Carboxymethoxy-5-cyano-phenyl)-5,7-difluoro-3,4-dihydro-1H-isoquinoline-2-carboxylic acid benzyl ester]: the IC50 was determined as 8.34 nM.
`O=C(O)COc1ccc(F)cc1C1c2ccccc2CCN1C(=O)Cc1noc2ccccc12` (racemic) [Example 45, (±)-{2-[2-(2-Benzo[d]isoxazol-3-yl-acetyl)-1,2,3,4-tetrahydro-isoquinolin-1-yl]-4-fluoro-phenoxy}-acetic acid]: the concentration for half-maximal inhibition (IC50) was determined as 369 nM.
`CC(C)(CC(=O)N1CCc2ccccc2C1c1cc(F)ccc1OCC(=O)O)c1ccccc1` (racemic) [Example 46, (±)-{4-Fluoro-2-[2-(3-methyl-3-phenyl-butyryl)-1,2,3,4-tetrahydro-isoquinolin-1-yl]-phenoxy}-acetic acid] displayed an IC50 of 916 nM.
Consider `O=C(O)COc1ccc(F)cc1C1c2ccccc2CCN1C(=O)Cc1cccc2ccccc12` (racemic) [Example 47, (±)-{4-Fluoro-2-[2-(2-naphthalen-1-yl-acetyl)-1,2,3,4-tetrahydro-isoquinolin-1-yl]-phenoxy}-acetic acid], for which the IC50 was 198 nM.
Turning to `O=C(O)COc1ccc(F)cc1C1c2ccccc2CCN1C(=O)Cc1ccc2cccnc2c1` (racemic) [Example 48, (±)-{4-Fluoro-2-[2-(2-quinolin-7-yl-acetyl)-1,2,3,4-tetrahydro-isoquinolin-1-yl]-phenoxy}-acetic acid], the IC50 was determined as 287 nM.
With `O=C(O)COc1ccc(F)cc1C1c2ccccc2CCN1C(=O)Cc1ccc2ncccc2c1` (racemic) [Example 49, (±)-{4-Fluoro-2-[2-(2-quinolin-6-yl-acetyl)-1,2,3,4-tetrahydro-isoquinolin-1-yl]-phenoxy}-acetic acid], the IC50 came to 35.7 nM.
`O=C(O)COc1ccc(F)cc1C1c2ccccc2CCN1C(=O)Cc1ccc2c(c1)OCCO2` (racemic) [Example 50] yielded an IC50 of 182 nM.
`O=C(O)COc1ccc(F)cc1C1c2ccccc2CCN1C(=O)CCc1c[nH]c2ccccc12` (racemic) [Example 51, (±)-{4-Fluoro-2-[2-(3-1H-indol-3-yl-propionyl)-1,2,3,4-tetrahydro-isoquinolin-1-yl]-phenoxy}-acetic acid]: the IC50 came to 30.1 nM.
`CCn1c(C)c(CCC(=O)N2CCc3ccccc3C2c2cc(F)ccc2OCC(=O)O)c2ccccc21` (racemic) [Example 52, (±)-(2-{2-[3-(1-Ethyl-2-methyl-1H-indol-3-yl)-propionyl]-1,2,3,4-tetrahydro-isoquinolin-1-yl}-4-fluoro-phenoxy)-acetic acid] displayed an IC50 of 600 nM.
Consider `O=C(O)COc1ccc(F)cc1C1c2ccccc2CCN1C(=O)CCc1c(Cl)cccc1Cl` (racemic) [Example 53, (±)-(2-{2-[3-(2,6-Dichloro-phenyl)-propionyl]-1,2,3,4-tetrahydro-isoquinolin-1-yl}-4-fluoro-phenoxy)-acetic acid], for which the IC50 stood at 877 nM.
The result for `O=C(O)COc1ccc(F)cc1C1c2ccccc2CCN1C(=O)CCOc1ccccc1F` (racemic) [Example 54] reads 32.2 nM; that for `Cc1nnnn1-c1ccc(CC(=O)N2CCc3ccccc3C2c2cc(F)ccc2OCC(=O)O)cc1` (racemic) [Example 55, (±)-[4-Fluoro-2-(2-{2-[4-(5-methyl-tetrazol-1-yl)-phenyl]-acetyl}-1,2,3,4-tetrahydro-isoquinolin-1-yl)-phenoxy]-acetic acid], 800 nM.
In turn, `O=C(O)COc1ccc(F)cc1C1c2ccccc2CCN1C(=O)CCN1C(=O)COc2ccc(Cl)cc21` (racemic) [Example 56, (±)-(2-{2-[3-(6-Chloro-3-oxo-2,3-dihydro-benzo[1,4]oxazin-4-yl)-propionyl]-1,2,3,4-tetrahydro-isoquinolin-1-yl}-4-fluoro-phenoxy)-acetic acid] gave an IC50 of 735 nM.
`Cc1nc(CC(=O)N2CCc3ccccc3C2c2cc(F)ccc2OCC(=O)O)cs1` (racemic) [Example 57, (±)-(4-Fluoro-2-{2-[2-(2-methyl-thiazol-4-yl)-acetyl]-1,2,3,4-tetrahydro-isoquinolin-1-yl}-phenoxy)-acetic acid]: the IC50 was 730 nM.
The compound `O=C(O)COc1ccc(F)cc1C1c2ccccc2CCN1C(=O)Cc1csc2ccccc12` (racemic) [Example 58, (±)-{2-[2-(2-Benzo[b]thiophen-3-yl-acetyl)-1,2,3,4-tetrahydro-isoquinolin-1-yl]-4-fluoro-phenoxy}-acetic acid] showed an IC50 of 123 nM.
The compound `O=C(O)COc1ccc(F)cc1C1c2ccccc2CCN1C(=O)CCc1nc2ccccc2s1` (racemic) [Example 59, (±)-{2-[2-(3-Benzothiazol-2-yl-propionyl)-1,2,3,4-tetrahydro-isoquinolin-1-yl]-4-fluoro-phenoxy}-acetic acid] had an IC50 of 794 nM.
With `O=C(O)COc1ccc(F)cc1C1c2ccccc2CCN1C(=O)Cc1ccc(-c2ccccc2)cc1` (racemic) [Example 60], the IC50 was 577 nM.
In the case of `O=C(O)COc1ccc(F)cc1C1c2ccccc2CCN1C(=O)Cn1ccc2ccccc21` (racemic) [Example 61, (±)-{4-Fluoro-2-[2-(2-indol-1-yl-acetyl)-1,2,3,4-tetrahydro-isoquinolin-1-yl]-phenoxy}-acetic acid], the IC50 was determined as 846 nM.
The result for `O=C(O)COc1ccc(F)cc1C1c2ccccc2CCN1C(=O)Cc1nc2ccccc2[nH]1` (racemic) [Example 62] reads 794 nM.
In the case of `O=C(O)COc1ccc(F)cc1C1c2ccccc2CCN1C(=O)CN1Cc2ccccc2C1` (racemic) [Example 63, (±)-{2-[2-(2-1,3-Dihydro-isoindol-2-yl-acetyl)-1,2,3,4-tetrahydro-isoquinolin-1-yl]-4-fluoro-phenoxy}-acetic acid], the IC50 was determined as 871 nM.
On to `COc1ccc2[nH]cc(CCC(=O)N3CCc4ccccc4C3c3cc(F)ccc3OCC(=O)O)c2c1` (racemic) [Example 64, (±)-(4-Fluoro-2-{2-[3-(5-methoxy-1H-indol-3-yl)-propionyl]-1,2,3,4-tetrahydro-isoquinolin-1-yl}-phenoxy)-acetic acid], for which the IC50 worked out at 49.7 nM.
